Earlier results in US20080214876A1, “Process for Preparation of Pharmaceutically Pure Anhydrous Calcipotriol” (INSTYTUT FARMACEUTYCZNY, priority 2004, published 2008).

Experiments:
[1] = tested on: epidermal keratinocytes; details: literature: Castelijins et al., Acta Derm. Venereol. 79, 111 (1999)
[2] = tested on: calcium metabolism; details: rats; relative to calcitriol; Binderup, Bramm, Biochem. Pharmacol. 37, 889 (1988)
[3] = pharmaceutical formulations

C=C1/C(=C\C=C2/CCC[C@]3(C)[C@@H]([C@H](C)/C=C/[C@@H](O)C4CC4)CC[C@@H]23)C[C@@H](O)C[C@@H]1O [calcipotriol, (1α,3β3,5Z,7E,22E,24S)-24-cyclopropyl-9,10-secochola-5,7,10(19),22-tetraene-1,3,24-triol]
activity in inhibiting undesirable proliferation of epidermal keratinocytes [1]: strong activity
weaker effect on calcium metabolism compared to calcitriol [2]: 100-200 fold
stability in some solutions [3]: poor stability

C=C1/C(=C\C=C2/CCC[C@]3(C)[C@@H]([C@H](C)CCCC(C)(C)O)CC[C@@H]23)C[C@@H](O)C[C@@H]1O [calcitriol, 1,25-dihydroxycholecalciferol]
activity in inhibiting undesirable proliferation of epidermal keratinocytes [1]: strong activity

C=C1/C(=C\C=C2/CCC[C@]3(C)[C@@H]([C@H](C)CC[C@@H](O)C(C)C)CC[C@@H]23)C[C@@H](O)C[C@@H]1O [tacalcitol, 1α,24R-dihydroxycholecalciferol]
activity in inhibiting undesirable proliferation of epidermal keratinocytes [1]: strong activity
